The test system of data set [1] is wild-type and Abca4−/− mice. Nature of the data set: Efficacy in a mammalian model. The data set is classed as in vivo, mouse. The following applies: orally dosed for 3 weeks at 30 mg/kg. The procedure:
The effectiveness of the compounds listed in Example 1-46 are tested in wild-type and Abca4−/− mice. The Abca4−/− mouse model manifests accelerated accumulation of lipofuscin in the RPE and is considered a pre-clinical efficacy model for a drug reducing lipofuscin accumulation. Compounds are orally dosed for 3 weeks at 30 mg/kg. There is a reduction in the serum RBP4 level in treated animals. The levels of A2E/isoA2E and other bisretinoids are reduced in treated mice.
The effectiveness of the octahydropyrrolopyrroles 66 and 67 are tested in wild-type and Abca4−/− mice. The Abca4−/− mouse model manifests accelerated accumulation of lipofuscin in the RPE and is considered a pre-clinical efficacy model for a drug reducing lipofuscin accumulation. Compounds are orally dosed for 3 weeks at 30 mg/kg. There is a reduction in the serum RBP4 level in treated animals. The levels of A2E/isoA2E and other bisretinoids are reduced in treated mice.
The effectiveness of the octahydropyrrolopyrroles of the present invention are tested in wild-type and Abca4−/− mice. The Abca4−/− mouse model manifests accelerated accumulation of lipofuscin in the RPE and is considered a pre-clinical efficacy model for a drug reducing lipofuscin accumulation. Compounds are orally dosed for 3 weeks at 30 mg/kg. There is a reduction in the serum RBP4 level in treated animals. The levels of A2E/isoA2E and other bisretinoids are reduced in treated mice.

Data set [2] has as its target T1, RBP4-TTR interaction (Homo sapiens (Human), UniProt P02753). Nature of the data set: TR-FRET (HTRF) assay for retinol-induced RBP4-TTR interaction. It counts as biochemical. The following applies: for IC50: in the presence of 1 μM retinol, read-out: HTRF assay for antagonists of RBP4-TTR interaction IC50. From the text: TR-FRET Assay for Retinol-Induced RBP4-TTR Interaction
Binding of a desired RBP4 antagonist displaces retinol and induces hindrance for RBP4-TTR interaction resulting in the decreased FRET signal (FIG. 7). Bacterially expressed MBP-RBP4 and untagged TTR were used in this assay. For the use in the TR-FRET assay the maltose binding protein (MBP)-tagged human RBP4 fragment (amino acids 19-201) was expressed in the Gold(DE3)pLysS E. coli strain (Stratagene) using the pMAL-c4x vector. Following cell lysis, recombinant RBP4 was purified from the soluble fraction using the ACTA FPLC system (GE Healthcare) equipped with the 5-ml the MBP Trap HP column. Human untagged TTR was purchased from Calbiochem. Untagged TTR was labeled directly with Eu^3+ Cryptate-NHS using the HTRF Cryptate Labeling kit from CisBio following the manufacturer's recommendations. HTRF assay was performed in white low volume 384 well plates (Greiner-Bio) in a final assay volume of 16 μl per well. The reaction buffer contained 10 mM Tris-HCl pH 7.5, 1 mM DTT, 0.05% NP-40, 0.05% Prionex, 6% glycerol, and 400 mM KF. Each reaction contained 60 nM MBP-RBP4 and 2 nM TTR-Eu along with 26.7 nM of anti-MBP antibody conjugated with d2 (Cisbio). Titration of test compounds in this assay was conducted in the presence of 1 μM retinol. All reactions were assembled in the dark under dim red light and incubated overnight at +4° C. wrapped in aluminum foil. TR-FRET signal was measured in the SpectraMax M5e Multimode Plate Reader (Molecular Device). Fluorescence was excited at 337 nm and two readings per well were taken: Reading 1 for time-gated energy transfer from Eu(K) to d2 (337 nm excitation, 668 nm emission, counting delay 75 microseconds, counting window 100 microseconds) and Reading 2 for Eu(K) time-gated fluorescence (337 nm excitation, 620 nm emission, counting delay 400 microseconds, counting window 400 microseconds). The TR-FRET signal was expressed as the ratio of fluorescence intensity: Flu665/Flu620×10,000.
Background: Time-resolved FRET reads energy transfer from a long-lived donor to a nearby acceptor.

The target of data set [3] is T2, RBP4 (Homo sapiens (Human), UniProt P02753). In words: Scintillation proximity RBP4 binding assay (SPA). The following applies: for IC50: 10 nM 3H-Retinol, 50 nM biotinylated RBP4. The procedure:
Scintillation Proximity RBP4 Binding Assay
Untagged human RBP4 purified from urine of tubular proteinuria patients was purchased from Fitzgerald Industries International. It was biotinylated using the EZ-Link Sulfo-NHS-LC-Biotinylation kit from Pierce following the manufacturer's recommendations. Binding experiments were performed in 96-well plates (OptiPlate, PerkinElmer) in a final assay volume of 100 μl per well in SPA buffer (1×PBS, pH 7.4, 1 mM EDTA, 0.1% BSA, 0.5% CHAPS). The reaction mix contained 10 nM ^3H-Retinol (48.7 Ci/mmol; PerkinElmer), 0.3 mg/well Streptavidin-PVT beads, 50 nM biotinylated RBP4 and a test compound. Nonspecific binding was determined in the presence of 20 μM of unlabeled retinol. The reaction mix was assembled in the dark under dim red light. The plates were sealed with clear tape (TopSeal-A: 96-well microplate, PerkinElmer), wrapped in the aluminum foil, and allowed to equilibrate 6 hours at room temperature followed by overnight incubation at +4° C. Radiocounts were measured using a TopCount NXT counter (Packard Instrument Company).
(In general: In a scintillation proximity assay essentially only radioactivity close to the scintillant gives light.)

The subject of another data set is Abca4−/− mice. Particulars: cited from earlier work.
The next data set concerns mice. The following applies: cited from earlier work.
Data set [4] addresses T1, RBP4-TTR interaction. The following applies: cited from earlier work.
The target of data set [5] is T2, RBP4. Particulars: cited from earlier work.
The subject of another data set is serum RBP4 and retinol. The following applies: in vivo; cited from earlier work.
Data set [6] has as its system retinal pigment epithelium cells. Particulars: many cell types, including retinal pigment epithelium cells; cited from earlier work.

Regarding `Cc1cc(C(=O)O)nc(N2C[C@@H]3CN(c4ccccc4C(F)(F)F)C[C@@H]3C2)n1` [Compound 67, 6-Methyl-2-((3aR,6aS)-5-(2-(trifluoromethyl)phenyl)hexahydropyrrolo[3,4-c]pyrrol-2(1H)-yl)pyrimidine-4-carboxylic Acid], in data set [1], the “levels of A2-DHP-PE and atRAL di-PE” value is given as “also reduced”; the “levels of A2E/isoA2E and other bisretinoids” value was “reduced”; the “serum RBP4 level” value was “reduction”.
With `Cc1ccc2nnc(C(=O)N3C[C@@H]4CN(c5ccccc5C(F)(F)F)C[C@@H]4C3)n2c1` [Compound 65, (6-Methyl-[1,2,4]triazolo[4,3-a]pyridin-3-yl)((3aR,6aS)-5-(2-(trifluoromethyl)phenyl)hexahydropyrrolo[3,4-c]pyrrol-2 (1H)-yl)methanone], at RBP4-TTR interaction [2], the “antagonism of retinol-dependent RBP4-TTR interaction (HTRF), in words” value is “antagonized retinol-dependent RBP4-TTR interaction” and the half-maximal inhibitory concentration (IC50) (as a rule, the concentration that inhibits the measured activity by half) was 20.8 nM. Further, at RBP4 [3], the “RBP4 binding (SPA), in words” value is reported as “binded to RBP4” and the IC50 stood at 1.68 nM.
On to `COC(=O)c1cc(C)nc(N2C[C@@H]3CN(c4ccccc4C(F)(F)F)C[C@@H]3C2)n1` [Compound 66, Methyl 6-methyl-2-((3aR,6aS)-5-(2-(trifluoromethyl)phenyl)hexahydropyrrolo[3,4-c]pyrrol-2(1H)-yl)pyrimidine-4-carboxylate], for which, at RBP4-TTR interaction [2], the “antagonism of retinol-dependent RBP4-TTR interaction (HTRF), in words” value is recorded as “antagonized retinol-dependent RBP4-TTR interaction” and the IC50 turned out to be 74 nM. Besides, in [1], the “levels of A2-DHP-PE and atRAL di-PE” value is recorded as “also reduced”; the “levels of A2E/isoA2E and other bisretinoids” value was “reduced”; the “serum RBP4 level” value is reported as “reduction”. At RBP4 [3], the “RBP4 binding (SPA), in words” value was “binded to RBP4” and the concentration for half-maximal inhibition (IC50) is 3.9 nM.
Take `CC1=C(/C=C/C(C)=C/C=C/C(C)=C/C(=O)Nc2ccc(O)cc2)C(C)(C)CCC1` [fenretinide, N-(4-hydroxy-phenyl)retinamide]: the A2E production result with Abca4−/− mice is on record as “reduced A2E production”. Further, in the data set on mice, the formation of hemangiosarcomas result is recorded as “stimulate formation of hemangiosarcomas”. On RBP4-TTR interaction [4], the RBP4-TTR interaction result is on record as “disrupt the RBP4-TTR interaction”. In addition, at RBP4 [5], the “binding to RBP4” value was “bind to RBP4” and the “displacement of all-trans retinol from RBP4” value was “displace all-trans retinol from RBP4”. For the same molecule, in the data set with serum RBP4 and retinol, the “ocular all-trans retinol uptake” value is reported as “inhibit ocular all-trans retinol uptake”; the “serum RBP4 and retinol” value is “reduce serum RBP4 and retinol”. For the same molecule, the induction of apoptosis entry in data set [6] is listed as “extremely active inducer of apoptosis”.

The values above are taken from patent US10787453B2, “Octahydropyrrolopyrroles their preparation and use” (The Trustees of Columbia University in the City of New York, priority 2013, dated 2020).
